Laboratory results reported in patent US6201006A, “Aromatic amidine derivatives useful as selective thrombin inhibitors” (C & C Research Laboratories, priority 1996, dated 2001).

Assays:
[1] = test system: thrombin time (TT) in rat plasma; experiment: Thrombin time (TT) in rat plasma after oral administration; assay type: in vivo, SD male rats; conditions: TT after / TT before administration
Description: SD male rats weighing 220±20 g which had fasted overnight were used as experimental animals. Blood taken from the hearts of the experimental animals just before administration of the test compound and at 30, 60, 120 and 240 minutes after oral administration of the test compound was mixed with 0.108M sodium citrate in the ratio of 9:1. The mixtures thereby obtained were centrifuged at 15,000 rpm for 5 minutes at 4° C. to separate the plasma, which was stored at -20° C. until the TT was measured by means of the method described below.
200 μl of Owren's buffer was added to 50 μl of the plasma and 100 μl of the diluted plasma thereby obtained was injected into the vial of a coagulometer and then incubated for 2 minutes at 37° C. To each vial was added 100 μl of thrombin at a concentration of 20 U/ml, which had prewarmed at 37° C., to measure the time (TT) until clotting occurred. The ratio of the TT in rat plasma after administration of the test compound to the TT in rat plasma before administration of the test compound was calculated.

human thrombin = target: T1, human thrombin (Homo sapiens, UniProt P00734); experiment: Inhibitory activity for thrombin (chromogenic substrate hydrolysis, 405 nm); assay type: biochemical; conditions: for Selectivity (trypsin/thrombin): IC50 for trypsin divided by IC50 for thrombin; for IC50: human thrombin, 20 min, pH 8.0, N-benzoyl-Phe-Val-Arg-p-nitroanilide
T1 construct: purchased Sigma T-6759
Description: 20 μl of each compound of the present invention was dissolved in 50% methanol in various concentrations and then added to each well of a microplate, to each of which 160 μl of the reaction medium containing 125 mM NaCl, 50 mM Tris-HCl (pH 8.0) and 2 mM synthetic substrate (N-benzoyl-Phe-Val-Arg-p-nitroanilide, Sigma B-7632) were added. 20 μl of human thrombin solution (5 units/ml, Sigma T-6759, manufactured by Sigma Co.) containing 0.1% bovine serum albumin was added to each well to initiate the enzymatic reaction. After 20 minutes, the hydrolysis of substrate was determined by measuring the absorbance at 405 nm. […] The selectivity index was calculated by dividing the IC50 value for trypsin by the IC50 value for thrombin. The thrombin inhibitory activity and the trypsin inhibitory activity for the compound of the present invention are shown in the following Table 2.

trypsin = experiment: Inhibitory activity for trypsin; assay type: biochemical

Compound	Plasma TT ratio after administration to rat ([1]; 50 mg/kg oral)	Selectivity (trypsin/thrombin) (human thrombin)	IC50 (human thrombin) [nM]	Plasma TT ratio after administration to rat ([1]; 30 mg/kg oral)	IC50 (trypsin) [nM]	Plasma TT ratio after administration to rat ([1]; 100 mg/kg oral)
CCOC(=O)[C@@H](N)CC(=O)N1CCC[C@@H]1C(=O)N1CCC[C@H]1CCc1cc2ccc(C(=N)N)cc2n1CC [Compound 159, ethyl 4-[(R)-2-[[(S)-2-[2-(6-amidino-1-ethylindol-2-yl)-ethyl]pyrrolidinyl]carbonyl]pyrrolidinyl]-(S)-2-amino-4-oxobutanoate]	6.23	20.7	19.3			
CCOC(=O)CCCN1CCC[C@@H]1C(=O)N1CCC[C@H]1CCc1cc2ccc(C(=N)N)cc2n1CC [Compound 126, ethyl 4-[(R)-2-[[(S)-2-[2-(6-amidino-1-ethylindol-2-yl)ethyl]pyrrolidinyl]carbonyl]pyrrolidinyl]butanoate]	5.40		40.5			
CCn1c(CC[C@@H]2CCCN2C(=O)[C@H]2CCCN2C(=O)C[C@H](N)C(=O)O)cc2ccc(C(=N)N)cc21 [Compound 161, 4-[(R)-2-[[(S)-2-[2-(6-amidino-1-ethylindol-2-yl)ethyl]pyrrolidinyl]carbonyl]pyrrolidinyl]-(S)-2-amino-4-oxobutanoic acid]	7.62	48.9	5.21			
CCOC(=O)CN1CCCC1C(=O)N1CCCC1CCc1cc2ccc(C(=N)NC(=O)OC(Cl)(Cl)Cl)cc2n1CC [Compound 272, ethyl 2-[(R)-2-[[(S)-2-[2-[6-[[(trichloromethoxy)carbonylamino]iminomethyl]-1-ethylindol-2-yl]ethyl]pyrrolidinyl]carbonyl]pyrrolidinyl]acetate]	2.84			1.76		
CCOC(=O)C(C(=O)N1CCC[C@H]1CCc1cc2ccc(C(=N)N)cc2n1CC)C1CCCC1 (stereo partly drawn) [Compound 44, ethyl 3-[(S)-2-[2-(6-aminido-1-ethylindol-2-yl)ethyl]pyrrolidinyl]-2-cyclopentyl-3-oxopropanoate]		33.9	9.23		313	
CCn1c(CC[C@@H]2CCCN2Cc2c(C(N)=O)sc3ccccc23)cc2ccc(C(=N)N)cc21 [Compound 8]		48.6	9.47		460	
CCn1c(CC[C@@H]2CCCN2C(=O)[C@H]2CCCN2C(=O)[C@@H](N)CC(=O)O)cc2ccc(C(=N)N)cc21 [Compound 149, 4-[(R)-2-[[(S)-2-[2-(6-amidino-1-ethylindol-2-yl)ethyl]pyrrolidinyl]carbonyl]pyrrolidinyl]-(S)-3-amino-4-oxobutanoic acid]	9.24		10.4			
CC(=O)N1CCC[C@@H]1C(=O)N1CCC[C@H]1CCc1cc2ccc(C(=N)N)cc2n1C [Compound 170, 1-methyl-2-[2-[(S)-1-[((R)-1-acetylpyrrolidin-2-yl)-carbonyl]pyrrolidin-2-yl]ethyl]indole-6-carboxamidine]		31.9	33.5		1070	
CCn1c(CC[C@@H]2CCCN2C(=O)[C@H]2CCCN2C(=O)C2CCCCN2)cc2ccc(C(=N)N)cc21 (stereo partly drawn) [Compound 167, 1-ethyl-2-[2-[(S)-1-[[(R)-1-[(2-piperidyl)carbonyl]pyrrolidin-2-yl]carbonyl]pyrrolidin-2-yl]ethyl]indole-6-carboxamidine]		17.6	18.3		322	
CCn1c(CC[C@@H]2CCCN2C(=O)[C@H]2CCCN2C(=O)[C@H](C)NS(C)(=O)=O)cc2ccc(C(=N)N)cc21 [Compound 146, 1-ethyl-2-[2-[(S)-1-[[(R)-1-[(S)-2-(methanesulfonylamino)propanoyl]pyrrolidin-2-yl]carbonyl]pyrrolidin-2-yl]-ethyl]indole-6-carboxamidine]		21.0	22.1		464	
CCOC(=O)CN1CCC[C@@H]1C(=O)N1CCC[C@H]1CCc1cc2ccc(C(=N)NC(=O)OCC)cc2n1CC [Compound 267, ethyl 2-[(R)-2-[[(S)-2-[2-[1-ethyl-6-[(ethoxycarbonylamino)iminomethyl]indol-2-yl]ethyl]pyrrolidinyl]carbonyl]pyrrolidinyl]acetate]	4.48					
CCOC(=O)CN1CCC[C@@H]1C(=O)N1CCC[C@H]1CCc1cc2ccc(C(=N)N)cc2n1CC [Compound 86, ethyl 2-[(R)-2-[[(S)-2-[2-(6-amidino-1-ethylindol-2-yl)ethyl]pyrrolidinyl]carbonyl]pyrrolidinyl]acetate]	4.51	25.0	27	1.49		5.19
CCn1c(CC[C@@H]2CCCN2C(=O)[C@H]2CCCN2C(=O)[C@@H](N)CC(N)=O)cc2ccc(C(=N)N)cc21 [Compound 148, 1-ethyl-2-[2-[(S)-1-[[(R)-1-((S)-2-amino-3-carbamoylpropanoyl)pyrrolidin-2-yl]carbonyl]pyrrolidin-2-yl]ethyl]indole-6-carboxamidine]		19.2	23		443	
CCn1c(CCC2CCCN2C(=O)C2CCCN2C(CCO)C(=O)O)cc2ccc(C(=N)N)cc21 [Compound 118, 2-[(R)-2-[[(S)-2-[2-(6-amidino-1-ethylindol-2-yl)ethyl]pyrrolidinyl]carbonyl]pyrrolidinyl]-4-hydroxy-butanoic acid]	8.80	14.5	12.3			
CCn1c(CC[C@@H]2CCCN2C(=O)[C@H]2CCCN2CCCC(=O)O)cc2ccc(C(=N)N)cc21 [Compound 127, 4-[(R)-2-[[(S)-2-[2-(6-amidino-1-ethylindol-2-yl)ethyl]pyrrolidinyl]carbonyl]pyrrolidinyl]butanoic acid]	8.00		21.7			
CCn1c(CC[C@@H]2CCCN2C(=O)[C@H]2CCCN2S(C)(=O)=O)cc2ccc(C(=N)N)cc21 [Compound 184, 1-ethyl-2-[2-[(S)-1-[[(R)-1-(methanesulfonyl)pyrrolidin-2-yl]carbonyl]pyrrolidin-2-yl]ethyl]indole-6-carboxamidine]		57.9	9.51		551	
CCn1c(CC[C@@H]2CCCN2C(=O)[C@H]2CCCN2C(=O)CCC(=O)O)cc2ccc(C(=N)N)cc21 [Compound 177]		26.6	18.8		500	
CCn1c(CC[C@@H]2CCCN2C(=O)Cc2cccc(Cl)c2)cc2ccc(C(=N)N)cc21 [Compound 15]		30.2	20.1		608	
CCOC(=O)CN1CCC[C@@H]1C(=O)N1CCC[C@H]1CCc1cc2ccc(C(=N)NC(=O)OC(C)C)cc2n1CC [Compound 270, ethyl 2-[(R)-2-[[(S)-2-[2-[1-ethyl-6-[imino[(methylethoxy)carbonylamino]methyl]indol-2-yl]ethyl]pyrrolidinyl]carbonyl]pyrrolidinyl]acetate]	4.30			1.46		
